{
  "source": "patent US20150079000A1",
  "about": "“Labelled Quinoxaline Derivatives as Multimodal Radiopharmaceuticals and Their Precursors” (INSTITUT NATIONAL DE LA SANTET DE LA RECHERCHE MEDICALE, priority 2012, published 2015)",
  "test_system": "B16 murine melanoma tumours",
  "test": "Ex vivo biodistribution study for compound [125I](1)",
  "format": "in vivo, C57BL/6J mice",
  "procedure": "Twenty four B16BL6 primary melanoma bearing mice were intravenously injected with 2.2 MBq of [^1251]1 and sacrificed 1 h, 3 h, 6 h, 24 h, 72 h and 10 days after tracer injection (n=4/time point). Tumours and major organs and tissues were promptly excised, harvested, weighted and their radioactivity counted using a calibrated γ-counter with a […] energy window. After radioactive decay correction, results were expressed as percentage of injected dose per gram of tissue (% ID/g).",
  "data": [
    {"smiles": "CCN(CCNC(=O)c1cnc2cc([125I])ccc2n1)CCOCCOCCOCCF", "note": "[[^125I](1)]", "values": [
      {"measurement": "% ID/g Adipose", "setting": "1 h p.i.", "value": "0.61 ± 0.01", "unit": "% ID/g"},
      {"measurement": "% ID/g Blood", "setting": "1 h p.i.", "value": "0.97 ± 0.07", "unit": "% ID/g"},
      {"measurement": "% ID/g Bones", "setting": "1 h p.i.", "value": "0.79 ± 0.09", "unit": "% ID/g"},
      {"measurement": "% ID/g Brain", "setting": "1 h p.i.", "value": "0.27 ± 0.03", "unit": "% ID/g"},
      {"measurement": "% ID/g Ceacum", "setting": "1 h p.i.", "value": "4.97 ± 3.01", "unit": "% ID/g"},
      {"measurement": "% ID/g Colon", "setting": "1 h p.i.", "value": "4.51 ± 4.40", "unit": "% ID/g"},
      {"measurement": "% ID/g Heart", "setting": "1 h p.i.", "value": "1.17 ± 0.07", "unit": "% ID/g"},
      {"measurement": "% ID/g Kidney", "setting": "1 h p.i.", "value": "4.75 ± 0.71", "unit": "% ID/g"},
      {"measurement": "% ID/g Liver", "setting": "1 h p.i.", "value": "6.33 ± 1.69", "unit": "% ID/g"},
      {"measurement": "% ID/g Lung", "setting": "1 h p.i.", "value": "3.12 ± 0.42", "unit": "% ID/g"},
      {"measurement": "% ID/g Muscle", "setting": "1 h p.i.", "value": "0.55 ± 0.16", "unit": "% ID/g"},
      {"measurement": "% ID/g Pancreas", "setting": "1 h p.i.", "value": "2.96 ± 0.15", "unit": "% ID/g"},
      {"measurement": "% ID/g Skin", "setting": "1 h p.i.", "value": "1.04 ± 0.06", "unit": "% ID/g"},
      {"measurement": "% ID/g Small intestine", "setting": "1 h p.i.", "value": "16.68 ± 10.70", "unit": "% ID/g"},
      {"measurement": "% ID/g Spleen", "setting": "1 h p.i.", "value": "2.14 ± 0.20", "unit": "% ID/g"},
      {"measurement": "% ID/g Stomach", "setting": "1 h p.i.", "value": "9.2 ± 1.49", "unit": "% ID/g"},
      {"measurement": "% ID/g Testes", "setting": "1 h p.i.", "value": "0.68 ± 0.19", "unit": "% ID/g"},
      {"measurement": "% ID/g Adipose", "setting": "3 h p.i.", "value": "0.36 ± 0.05", "unit": "% ID/g"},
      {"measurement": "% ID/g Blood", "setting": "3 h p.i.", "value": "0.82 ± 0.05", "unit": "% ID/g"},
      {"measurement": "% ID/g Bones", "setting": "3 h p.i.", "value": "0.48 ± 0.03", "unit": "% ID/g"},
      {"measurement": "% ID/g Brain", "setting": "3 h p.i.", "value": "0.15 ± 0.01", "unit": "% ID/g"},
      {"measurement": "% ID/g Ceacum", "setting": "3 h p.i.", "value": "25.73 ± 7.88", "unit": "% ID/g"},
      {"measurement": "% ID/g Colon", "setting": "3 h p.i.", "value": "21.19 ± 18.02", "unit": "% ID/g"},
      {"measurement": "% ID/g Heart", "setting": "3 h p.i.", "value": "0.77 ± 0.05", "unit": "% ID/g"},
      {"measurement": "% ID/g Kidney", "setting": "3 h p.i.", "value": "3.14 ± 1.27", "unit": "% ID/g"},
      {"measurement": "% ID/g Liver", "setting": "3 h p.i.", "value": "3.37 ± 0.14", "unit": "% ID/g"},
      {"measurement": "% ID/g Lung", "setting": "3 h p.i.", "value": "2.14 ± 0.27", "unit": "% ID/g"},
      {"measurement": "% ID/g Muscle", "setting": "3 h p.i.", "value": "0.30 ± 0.04", "unit": "% ID/g"},
      {"measurement": "% ID/g Pancreas", "setting": "3 h p.i.", "value": "1.48 ± 0.07", "unit": "% ID/g"},
      {"measurement": "% ID/g Skin", "setting": "3 h p.i.", "value": "1.34 ± 0.72", "unit": "% ID/g"},
      {"measurement": "% ID/g Small intestine", "setting": "3 h p.i.", "value": "4.16 ± 0.70", "unit": "% ID/g"},
      {"measurement": "% ID/g Spleen", "setting": "3 h p.i.", "value": "2.37 ± 2.58", "unit": "% ID/g"},
      {"measurement": "% ID/g Stomach", "setting": "3 h p.i.", "value": "4.53 ± 0.94", "unit": "% ID/g"},
      {"measurement": "% ID/g Testes", "setting": "3 h p.i.", "value": "0.54 ± 0.03", "unit": "% ID/g"},
      {"measurement": "% ID/g Adipose", "setting": "6 h p.i.", "value": "0.19 ± 0.06", "unit": "% ID/g"},
      {"measurement": "% ID/g Blood", "setting": "6 h p.i.", "value": "0.62 ± 0.20", "unit": "% ID/g"},
      {"measurement": "% ID/g Bones", "setting": "6 h p.i.", "value": "0.30 ± 0.10", "unit": "% ID/g"},
      {"measurement": "% ID/g Brain", "setting": "6 h p.i.", "value": "0.08 ± 0.03", "unit": "% ID/g"},
      {"measurement": "% ID/g Ceacum", "setting": "6 h p.i.", "value": "23.31 ± 16.47", "unit": "% ID/g"},
      {"measurement": "% ID/g Colon", "setting": "6 h p.i.", "value": "15.92 ± 9.97", "unit": "% ID/g"},
      {"measurement": "% ID/g Heart", "setting": "6 h p.i.", "value": "0.46 ± 0.17", "unit": "% ID/g"},
      {"measurement": "% ID/g Kidney", "setting": "6 h p.i.", "value": "1.56 ± 0.82", "unit": "% ID/g"},
      {"measurement": "% ID/g Liver", "setting": "6 h p.i.", "value": "2.02 ± 0.64", "unit": "% ID/g"},
      {"measurement": "% ID/g Lung", "setting": "6 h p.i.", "value": "1.04 ± 0.37", "unit": "% ID/g"},
      {"measurement": "% ID/g Muscle", "setting": "6 h p.i.", "value": "0.17 ± 0.07", "unit": "% ID/g"},
      {"measurement": "% ID/g Pancreas", "setting": "6 h p.i.", "value": "0.65 ± 0.18", "unit": "% ID/g"},
      {"measurement": "% ID/g Skin", "setting": "6 h p.i.", "value": "0.62 ± 0.31", "unit": "% ID/g"},
      {"measurement": "% ID/g Small intestine", "setting": "6 h p.i.", "value": "2.23 ± 1.35", "unit": "% ID/g"},
      {"measurement": "% ID/g Spleen", "setting": "6 h p.i.", "value": "6.45 ± 8.15", "unit": "% ID/g"},
      {"measurement": "% ID/g Stomach", "setting": "6 h p.i.", "value": "7.39 ± 4.08", "unit": "% ID/g"},
      {"measurement": "% ID/g Testes", "setting": "6 h p.i.", "value": "0.36 ± 0.08", "unit": "% ID/g"},
      {"measurement": "% ID/g Adipose", "setting": "24 h p.i.", "value": "0.028 ± 0.00", "unit": "% ID/g"},
      {"measurement": "% ID/g Blood", "setting": "24 h p.i.", "value": "0.06 ± 0.01", "unit": "% ID/g"},
      {"measurement": "% ID/g Bones", "setting": "24 h p.i.", "value": "0.03 ± 0.00", "unit": "% ID/g"},
      {"measurement": "% ID/g Brain", "setting": "24 h p.i.", "value": "0.01 ± 0.01", "unit": "% ID/g"},
      {"measurement": "% ID/g Ceacum", "setting": "24 h p.i.", "value": "0.41 ± 0.13", "unit": "% ID/g"},
      {"measurement": "% ID/g Colon", "setting": "24 h p.i.", "value": "0.69 ± 0.23", "unit": "% ID/g"},
      {"measurement": "% ID/g Heart", "setting": "24 h p.i.", "value": "0.16 ± 0.06", "unit": "% ID/g"},
      {"measurement": "% ID/g Kidney", "setting": "24 h p.i.", "value": "0.15 ± 0.02", "unit": "% ID/g"},
      {"measurement": "% ID/g Liver", "setting": "24 h p.i.", "value": "0.46 ± 0.10", "unit": "% ID/g"},
      {"measurement": "% ID/g Lung", "setting": "24 h p.i.", "value": "0.08 ± 0.01", "unit": "% ID/g"},
      {"measurement": "% ID/g Muscle", "setting": "24 h p.i.", "value": "0.02 ± 0.00", "unit": "% ID/g"},
      {"measurement": "% ID/g Pancreas", "setting": "24 h p.i.", "value": "0.05 ± 0.01", "unit": "% ID/g"},
      {"measurement": "% ID/g Skin", "setting": "24 h p.i.", "value": "0.17 ± 0.00", "unit": "% ID/g"}
    ]}
  ]
}
